Publication PMC12057046, “Elucidation of short linear motif-based interactions of the MIT and rhodanese domains of the ubiquitin-specific protease 8” (Biology Direct, 2025)

These sequences were tested on USP8 MIT domain (assay: Peptide-phage display-based deep mutational scanning (DMS), USP8 MIT domain). Settings: bait USP8_MIT__P40818_1_142; EFCAB12 (Q6NXP0) 2-17; pair of mutant with wild-type wt_00016 (MDDDYEAYHSLFLSLL); sheet S3.B_ProP-PD_pairs.
Assay type: binding, human
Description: The residues of these 16 amino acid-long wild-type peptides were substituted to all natural amino acid residues, except cysteine, in all positions (Supplementary Table S2A). The designed peptide sequences were reverse-translated to oligonucleotides optimized to the codon usage of E. coli. The required flanking regions (5´[…] and 3´[…]) were added for library construction. The library was generated as previously described.
Four rounds of phage selections were carried out using the second generation human disorderome library or the constructed deep mutational scanning library. At least three individual replicates were used for each bait protein. 10 µg of GST-tagged proteins or GST control (diluted in PBS from the stock of proteins kept in the purification elution buffer) were immobilized in 100 µL PBS on a 96-well MaxiSorp (Nunc) plate overnight at 4 °C. The plates were incubated with blocking buffer (with 0.5% BSA in PBS) for 1 h at 4 °C followed by washing with 0.05% Tween 20 in PBS four times. The naïve phage library (10^11 CFU) was diluted in 1/5th volume PEG/NaCl (20% PEG-8000, 0.4 M NaCl) and 1X PBS, incubated on ice for 10 min and centrifuged at 10,000 [drawing 3] g for 10 min. The pellet was resuspended in the volume of PBS (100 µL/ well). The GST-coated control plate was incubated with 100 µL library per well in PBS for 1 h at 4 °C to remove non-specific binders. The supernatant was transferred to the target wells and incubated for 2 h at 4 °C. The wells were washed five times with 0.05% Tween 20 in PBS and the bound phages were eluted with 100 µL per well log-phase E. coli OmniMAX by incubating at 37° C while shaking. After 30 min, M13KO7 helper phages were added and incubated for an additional 45 min. The bacterial cultures were transferred to 1 mL 2YT supplemented with 100 µg/mL carbenicillin, 30 µg/mL kanamycin and 0.3 mM IPTG and grew overnight at 37 °C while shaking. The following day the cultures were centrifuged for 10 min at 2,000 [drawing 4] g, 4 °C. 1/10th volume of 10 [drawing 5] PBS was added to adjust the pH and heated at 65 °C for 10 min. The phage pools from each round were used as in-phages for the next round of selections.
The samples were prepared for NGS as previously described. Peptide-coding regions of the enriched phage pools were amplified and barcoded using Phusion High-Fidelity PCR Master Mix (Thermo Fisher) for 22 cycles and confirmed by 2% agarose gel electrophoresis. The PCR products were normalized with 25 µL Mag-bind Total Pure NGS beads (Omega Biotek) and 10 µL of each eluted sample (Qiagen Elution Buffer) was pooled and cleaned-up with a PCR purification kit (Qiagen). The PCR product was confirmed by 2% agarose electrophoresis and the band was extracted with QIAquick Gel extraction Kit (Qiagen) and eluted with 30 µL TE buffer. The dsDNA was quantified using QuantiT PicoGreen dsDNA Assay Kit (Thermo Fisher) and sent for NGS (Illumina MiSeq v3, 1 × 150 bp read setup, 20% PhiX, NGI SciLifeLab facility, Sweden). The NGS data were demultiplexed, adapter regions were trimmed and sequences with an average quality of at least 20 were translated to peptide sequences. The NGS data were analysed using custom Python scripts. The total read NGS counts for each selection experiment of each peptide sequence were compiled and annotated in PepTools (https://slim.icr.ac.uk/tools/peptools/). Since ProP-PD is in essence a competition assay, the possibility of the input phage library influencing the selection outcome was explored. For this, the Pearson correlation coefficient, p-value and coefficient of determination were calculated for all peptide NGS count fractions in the library coverage vs. in the selections results (Supplementary Fig. S7; Supplementary Table S2B; Supplementary Table S3B; Supplementary Table S7B). Pearson correlation coefficient and p-value were calculated using Python’s SciPy library. […]
For MDWDYEAYHSLFLSLL [mut_04373], the hit_pair_ratio was 2.57.
MDNDYEAYHSLFLSLL [mut_04366] gave a hit_pair_ratio of 19.88.
With ADDDYEAYHSLFLSLL [mut_04321] the hit_pair_ratio was 112.64.
Sequence MDDSYEAYHSLFLSLL [mut_04388] has a hit_pair_ratio of 4.76.
With MDEDYEAYHSLFLSLL [mut_04358] the hit_pair_ratio was 3.08.
MIDDYEAYHSLFLSLL [mut_04344] was tested, and the hit_pair_ratio was 337.92.
With MDDDYGAYHSLFLSLL [mut_04414] the hit_pair_ratio was 33.85.
MDDDYQAYHSLFLSLL [mut_04422] showed a hit_pair_ratio of 12.11.
Work on MDDDYAAYHSLFLSLL [mut_04411] yielded a hit_pair_ratio of 3.89.
With MDDDLEAYHSLFLSLL [mut_04401] the hit_pair_ratio was 337.92.
For MDDLYEAYHSLFLSLL [mut_04382], the hit_pair_ratio was 337.92.
In the case of MDDKYEAYHSLFLSLL [mut_04381], the hit_pair_ratio is reported as 84.82.
In the case of MDQDYEAYHSLFLSLL [mut_04368], the hit_pair_ratio is reported as 8.05.
For MDADYEAYHSLFLSLL [mut_04357], the hit_pair_ratio was 1.08.
MDDDYSAYHSLFLSLL [mut_04424] gave a hit_pair_ratio of 84.48.
Sequence MDIDYEAYHSLFLSLL [mut_04362] has a hit_pair_ratio of 337.92.
NDDDYEAYHSLFLSLL [mut_04330] was tested, and the hit_pair_ratio was 17.85.
Sequence MDDTYEAYHSLFLSLL [mut_04389] has a hit_pair_ratio of 15.92.
Work on MADDYEAYHSLFLSLL [mut_04339] yielded a hit_pair_ratio of 13.05.
MDDDYESYHSLFLSLL [mut_04442] showed a hit_pair_ratio of 37.68.
MNDDYEAYHSLFLSLL [mut_04348] showed a hit_pair_ratio of 14.75.
MDDDYEGYHSLFLSLL [mut_04432] showed a hit_pair_ratio of 1.19.
In the case of MDDDYEQYHSLFLSLL [mut_04440], the hit_pair_ratio is reported as 112.94.
Sequence MDDDDEAYHSLFLSLL [mut_04394] has a hit_pair_ratio of 12.10.
PDDDYEAYHSLFLSLL [mut_04331] was tested, and the hit_pair_ratio was 10.25.
For QDDDYEAYHSLFLSLL [mut_04332], the hit_pair_ratio was 3.38.
Work on MEDDYEAYHSLFLSLL [mut_04340] yielded a hit_pair_ratio of 16.11.
Work on MDTDYEAYHSLFLSLL [mut_04371] yielded a hit_pair_ratio of 112.94.
TDDDYEAYHSLFLSLL [mut_04335] gave a hit_pair_ratio of 30.76.
MDDDYFAYHSLFLSLL [mut_04413] showed a hit_pair_ratio of 168.96.
MDDDYLAYHSLFLSLL [mut_04418] gave a hit_pair_ratio of 84.82.
In the case of MDLDYEAYHSLFLSLL [mut_04364], the hit_pair_ratio is reported as 2.51.
With LDDDYEAYHSLFLSLL [mut_04329] the hit_pair_ratio was 1.88.
For FDDDYEAYHSLFLSLL [mut_04324], the hit_pair_ratio was 112.64.
With MDDDYEPYHSLFLSLL [mut_04439] the hit_pair_ratio was 9.13.
Work on MDDPYEAYHSLFLSLL [mut_04385] yielded a hit_pair_ratio of 4.13.
MGDDYEAYHSLFLSLL [mut_04342] was tested, and the hit_pair_ratio was 337.92.
MDDDYETYHSLFLSLL [mut_04443] gave a hit_pair_ratio of 112.94.
For MVDDYEAYHSLFLSLL [mut_04354], the hit_pair_ratio was 6.06.
MDDRYEAYHSLFLSLL [mut_04387] was tested, and the hit_pair_ratio was 84.48.
MRDDYEAYHSLFLSLL [mut_04351] was tested, and the hit_pair_ratio was 4.58.

Same assay, conditions: bait USP8_MIT__P40818_1_142; MLPH 482-497; ratio of averaged fractions of wild-type/mutant peptide pair, larger over smaller (direction to be read from the two fractions)
Work on SEVSDIEMRIAALRAA yielded a hit_pair_ratio of 7.10.
SEVSDTESRIAALRAA was tested, and the hit_pair_ratio was 3.89.
SEVSDIESRIAALVAA showed a hit_pair_ratio of 18.10.
SEVSDIESRIALLRAA was tested, and the hit_pair_ratio was 1.95.
Sequence SEVIDIESRIAALRAA has a hit_pair_ratio of 6.39.
Sequence SEVSDIEPRIAALRAA has a hit_pair_ratio of 7.79.
SEVSDIESRIAALRAM was tested, and the hit_pair_ratio was 108.17.
In the case of SEVSDIESRQAALRAA, the hit_pair_ratio is reported as 2.60.
SEVSDIEHRIAALRAA was tested, and the hit_pair_ratio was 4.62.
In the case of SEVSDIESRIAASRAA, the hit_pair_ratio is reported as 1.95.
With SEVSDIERRIAALRAA the hit_pair_ratio was 1.35.
For SEVSDIESRIAMLRAA, the hit_pair_ratio was 1.77.
SEVSDIESRIAALREA was tested, and the hit_pair_ratio was 7.79.
Work on SEVMDIESRIAALRAA yielded a hit_pair_ratio of 4.36.
For SEVQDIESRIAALRAA, the hit_pair_ratio was 3.89.
SEVSDIESRIAELRAA gave a hit_pair_ratio of 1.95.
SEVSDHESRIAALRAA showed a hit_pair_ratio of 1.54.
SEVSDYESRIAALRAA showed a hit_pair_ratio of 2.23.
SEVRDIESRIAALRAA was tested, and the hit_pair_ratio was 4.05.
In the case of SEYSDIESRIAALRAA, the hit_pair_ratio is reported as 1.74.
Work on SEVHDIESRIAALRAA yielded a hit_pair_ratio of 28.09.
Work on SEVSDIESRIAALRMA yielded a hit_pair_ratio of 17.19.
SEVSDIESRIAALIAA gave a hit_pair_ratio of 3.61.
SEVSDRESRIAALRAA was tested, and the hit_pair_ratio was 2.60.
SEVSDIESRIAAWRAA gave a hit_pair_ratio of 2.60.
With SEVSDIESRIAALHAA the hit_pair_ratio was 1.15.
SEVLDIESRIAALRAA gave a hit_pair_ratio of 9.47.
In the case of SEVSDIESRIAALRYA, the hit_pair_ratio is reported as 7.79.
With SEVSDITSRIAALRAA the hit_pair_ratio was 1.11.
Sequence SEVSDIESRIKALRAA has a hit_pair_ratio of 3.89.
Work on SEVSDIESRIAALRAI yielded a hit_pair_ratio of 17.25.
SEVSDIENRIAALRAA showed a hit_pair_ratio of 1.11.
SEVSDIESRIAALTAA was tested, and the hit_pair_ratio was 7.79.
With SEVYDIESRIAALRAA the hit_pair_ratio was 346.56.

Same assay, conditions: sheet S3.B_ProP-PD_pairs; bait USP8_MIT__P40818_1_142; ratio within the wild-type/mutant pair, larger over smaller averaged fraction (direction from fraction_wt and fraction_mut)
With MDDDYEAYHSLFLSLI the hit_pair_ratio was 168.96.
With MDDDYEAYHMLFLSLL the hit_pair_ratio was 7.51.
For SEASDIESRIAALRAA, the hit_pair_ratio was 1.11.
Work on MDDDYEAYYSLFLSLL yielded a hit_pair_ratio of 24.06.
For MDDDYEAYHSLFLSHL, the hit_pair_ratio was 84.48.
For SRVSDIESRIAALRAA, the hit_pair_ratio was 3.31.
Sequence MDDDYEAYHSLFLTLL has a hit_pair_ratio of 2.44.
Work on MDDDYEAYHSGFLSLL yielded a hit_pair_ratio of 337.92.
Work on SEISDIESRIAALRAA yielded a hit_pair_ratio of 2.51.
Sequence MDDDYEAYQSLFLSLL has a hit_pair_ratio of 28.27.
MDDDYEAYHSLFLPLL showed a hit_pair_ratio of 337.92.
With MDDDYEYYHSLFLSLL the hit_pair_ratio was 2.04.
MDDDYEAYHSLFISLL showed a hit_pair_ratio of 5.63.
MDDDYEAYHSLFLSAL was tested, and the hit_pair_ratio was 337.92.
MDDDYEWYHSLFLSLL was tested, and the hit_pair_ratio was 1.12.
In the case of MDDDYEALHSLFLSLL, the hit_pair_ratio is reported as 56.39.
MDDDYEAYHSLFLSLK gave a hit_pair_ratio of 19.88.
In the case of MDDDYEAYHSKFLSLL, the hit_pair_ratio is reported as 169.63.
For EEVSDIESRIAALRAA, the hit_pair_ratio was 7.79.
Sequence SEQSDIESRIAALRAA has a hit_pair_ratio of 5.24.
MDDDYEAYHSLSLSLL showed a hit_pair_ratio of 337.92.
SELSDIESRIAALRAA showed a hit_pair_ratio of 11.85.
In the case of MDDDYEAYKSLFLSLL, the hit_pair_ratio is reported as 84.48.
MDDDYEAYHSLFLHLL showed a hit_pair_ratio of 2.92.
In the case of MDDDYEASHSLFLSLL, the hit_pair_ratio is reported as 112.64.
In the case of MDDDYEAYASLFLSLL, the hit_pair_ratio is reported as 5.54.
Sequence MDDDYEATHSLFLSLL has a hit_pair_ratio of 17.79.
For MDDDYEAYNSLFLSLL, the hit_pair_ratio was 169.63.
With MDDDYEAYHNLFLSLL the hit_pair_ratio was 1.00.
Work on MDDDYEAWHSLFLSLL yielded a hit_pair_ratio of 1.40.
With MDDDYEAYHSIFLSLL the hit_pair_ratio was 10.94.
With MDDDYEAYHSLFVSLL the hit_pair_ratio was 37.55.
SYVSDIESRIAALRAA gave a hit_pair_ratio of 1.00.
For MDDDYEAIHSLFLSLL, the hit_pair_ratio was 132.20.
Work on AEVSDIESRIAALRAA yielded a hit_pair_ratio of 40.88.
MDDDYEAYHSLFLSSL was tested, and the hit_pair_ratio was 337.92.
In the case of MDDDYEAYHYLFLSLL, the hit_pair_ratio is reported as 1.94.
SESSDIESRIAALRAA gave a hit_pair_ratio of 3.89.
For FEVSDIESRIAALRAA, the hit_pair_ratio was 3.72.
Sequence MDDDYEAYHSHFLSLL has a hit_pair_ratio of 24.22.
MDDDYEAYHSLFLNLL showed a hit_pair_ratio of 33.93.
